Here are results for 17 molecules from US8193189B2, “Quinoxaline derivatives as tyrosine kinase activity inhibitors” (Novartis AG, priority 2007, dated 2012).

A word on the IC50: it is the point on the concentration scale where inhibition reaches its midpoint.

In one assay the target is T1, GST-JAK1(866-1154) (Homo sapiens, UniProt P23458).
T1 construct: GST-JAK1(866-1154); made in house
Put plainly: EPK JAK-family kinases profiling assay (Caliper mobility shift), JAK1. In kind it is biochemical. Conditions: ATP 40 μM, 50 nM kinase. The gist of the method:
(§1)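 Turnover was read as substrate/product ratio after mobility-shift capillary-like separation of each reaction, run for 60 min at 30 °C with GST-tagged kinase domain, labelled peptide and ATP, and terminated with EDTA stop buffer.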

Another assay deals with T2, GST-JAK2(808-1132) (Homo sapiens, UniProt O60674).
T2 construct: GST-JAK2(808-1132); purchased Invitrogen (Carlsbad, USA) #4288
Kind of assay: EPK JAK-family kinases profiling assay (Caliper mobility shift), JAK2. In kind it is biochemical. The following applies: ATP 20 μM, 1.8 nM kinase. The essentials:
as §1

In a further assay the target is T3, GST-JAK3(811-1124) (Homo sapiens, UniProt P52333).
T3 construct: GST-JAK3(811-1124); made in house
Kind of assay: EPK JAK-family kinases profiling assay (Caliper mobility shift), JAK3. Format: biochemical. Conditions: ATP 80 μM, 6 nM kinase. The gist of the method:
as §1

For the next assay, the target named is T4, GST-TYK2(888-1187) (Homo sapiens, UniProt P29597).
T4 construct: GST-TYK2(888-1187); made in house
T4 sequence (P29597 888-1187): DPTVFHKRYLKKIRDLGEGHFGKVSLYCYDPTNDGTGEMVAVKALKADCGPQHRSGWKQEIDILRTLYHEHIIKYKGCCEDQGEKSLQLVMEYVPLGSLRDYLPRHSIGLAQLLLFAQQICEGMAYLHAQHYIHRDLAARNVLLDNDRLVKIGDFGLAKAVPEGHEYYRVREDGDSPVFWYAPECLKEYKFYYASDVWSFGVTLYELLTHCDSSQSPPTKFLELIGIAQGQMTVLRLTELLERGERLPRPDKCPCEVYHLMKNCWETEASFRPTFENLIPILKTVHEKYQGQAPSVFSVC
Kind of assay: EPK JAK-family kinases profiling assay (Caliper mobility shift), TYK2. Conditions: ATP 30 μM, 40 nM kinase. Format: biochemical. The gist of the method:
as §1

In assay [1] the test system is JAK/STAT pathway (JAK1/JAK2-dependent nuclear translocation of STAT1-GFP). Kind of assay: Inhibition of the JAK/STAT pathway: IFN-γ stimulated nuclear translocation of STAT1-GFP in HT1080 fibrosarcoma cells. Conditions: Homo sapiens, HT-1080; HT1080 STAT1-GFP cells, 100 ng/ml IFN-γ 2 hours, compound added 30 min before; read-out: STAT1translo IC50. In kind it is cell-based. The essentials: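 HT1080 cells stably expressing STAT1-GFP, compounds added 30 min before IFN-γ stimulation at final 10 μM down to 0.003 μM (0.1% DMSO). Nuclear-cytoplasmic GFP intensity differential quantified by automated imaging with Hoechst nuclear mask, ≥1000 cells per well, averaged per well.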

T2 sequence (O60674 808-1132): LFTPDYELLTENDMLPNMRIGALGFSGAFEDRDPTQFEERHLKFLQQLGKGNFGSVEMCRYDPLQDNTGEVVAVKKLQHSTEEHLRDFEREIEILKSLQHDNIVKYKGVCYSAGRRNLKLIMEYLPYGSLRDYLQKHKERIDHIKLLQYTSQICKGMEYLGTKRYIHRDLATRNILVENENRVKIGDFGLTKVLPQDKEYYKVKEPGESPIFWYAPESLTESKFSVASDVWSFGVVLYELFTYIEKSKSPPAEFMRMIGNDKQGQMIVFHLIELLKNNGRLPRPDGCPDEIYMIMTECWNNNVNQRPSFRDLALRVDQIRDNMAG
T3 sequence (P52333 811-1124): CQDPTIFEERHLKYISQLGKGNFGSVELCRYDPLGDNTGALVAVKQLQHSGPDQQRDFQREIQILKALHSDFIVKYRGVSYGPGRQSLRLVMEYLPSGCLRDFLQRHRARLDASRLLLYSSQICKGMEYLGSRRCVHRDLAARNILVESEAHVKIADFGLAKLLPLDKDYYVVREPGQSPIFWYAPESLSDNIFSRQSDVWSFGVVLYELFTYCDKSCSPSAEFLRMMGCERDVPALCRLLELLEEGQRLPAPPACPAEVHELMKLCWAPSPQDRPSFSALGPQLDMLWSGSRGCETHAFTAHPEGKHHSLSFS
T1 sequence (P23458 866-1154): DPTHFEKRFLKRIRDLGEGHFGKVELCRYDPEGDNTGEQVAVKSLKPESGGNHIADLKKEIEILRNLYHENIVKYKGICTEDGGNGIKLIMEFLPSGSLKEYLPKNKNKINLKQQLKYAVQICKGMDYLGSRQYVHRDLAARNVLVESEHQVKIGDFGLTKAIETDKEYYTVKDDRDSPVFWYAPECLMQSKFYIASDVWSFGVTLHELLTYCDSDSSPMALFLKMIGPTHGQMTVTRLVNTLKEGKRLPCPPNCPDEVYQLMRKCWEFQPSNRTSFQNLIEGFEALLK

On to `Cc1cc(-c2cnc3cccc(-c4ccc(CN5CCS(=O)(=O)CC5)c(C)c4)c3n2)ccc1CN1CCOCC1` [Example 70, 8-[4-(1,1-Dioxido-thiomorpholin-4-ylmethyl)-3-methyl-phenyl]-2-(3-methyl-4-morpholin-4-ylmethyl-phenyl)-quinoxaline], for which the IC50 at GST-JAK1(866-1154) amounted to 360 nM; on GST-JAK2(808-1132), 30.5 nM; at GST-JAK3(811-1124), 1750 nM; at GST-TYK2(888-1187) it was 1350 nM; in assay [1] it was 564 nM.

In the case of `Cc1cc(-c2cnc3cccc(-c4cc(F)c(CN5CCS(=O)(=O)CC5)c(F)c4)c3n2)ccc1C(=O)N(C)CCN(C)C` [Example 95, N-(2-Dimethylamino-ethyl)-4-{8-[4-(1,1-dioxido-thiomorpholin-4-ylmethyl)-3,5-difluoro-phenyl]-quinoxalin-2-yl}-2,N-dimethyl-benzamide], the IC50 at GST-JAK1(866-1154) is 18 nM; on GST-JAK2(808-1132), less than 3 nM; at GST-JAK3(811-1124), 73.5 nM; on GST-TYK2(888-1187), 40 nM; in assay [1] it was 105 nM.

Take `O=S1(=O)CCN(Cc2c(F)cc(-c3cccc4ncc(-c5cnn(C6CCNCC6)c5)nc34)cc2F)CC1` [Example 96, 8-[4-(1,1-Dioxido-thiomorpholin-4-ylmethyl)-3,5-difluoro-phenyl]-2-(1-piperidin-4-yl-1H-pyrazol-4-yl)-quinoxaline]: the IC50 on GST-JAK1(866-1154) is 53 nM; at GST-JAK2(808-1132) it was less than 3 nM; at GST-JAK3(811-1124), 260 nM; at GST-TYK2(888-1187), 50.5 nM; in assay [1] it was 35.5 nM.

As for `Cc1cc(-c2cnc3cccc(-c4cc(F)c(CN5CCS(=O)(=O)CC5)c(F)c4)c3n2)ccc1C(=O)N1CCC(N(C)C)CC1` [Example 102, (4-Dimethylamino-piperidin-1-yl)-(4-{8-[4-(1,1-dioxido-thiomorpholin-4-ylmethyl)-3,5-difluoro-phenyl]-quinoxalin-2-yl}-2-methyl-phenyl)-methanone], the IC50 on GST-JAK1(866-1154) was 1220 nM; on GST-JAK2(808-1132), 74 nM; on GST-JAK3(811-1124) it was 5330 nM; on GST-TYK2(888-1187), 2730 nM; in assay [1] it was 31.5 nM.

Turning to `COc1cc(-c2cnc3cccc(-c4cc(F)c(CN5CCOCC5)c(F)c4)c3n2)ccc1N1CCN(C)CC1` [Example 104, 8-(3,5-Difluoro-4-morpholin-4-ylmethyl-phenyl)-2-[3-methoxy-4-(4-methyl-piperazin-1-yl)-phenyl]-quinoxaline], the IC50 was 52 nM on GST-JAK1(866-1154); less than 3 nM at GST-JAK2(808-1132); 390 nM at GST-JAK3(811-1124); 130 nM at GST-TYK2(888-1187); 420 nM in assay [1].

Consider `CN1CCN(c2ccc(-c3cnc4cccc(-c5cc(F)c(C(=O)N6CCOCC6)c(F)c5)c4n3)cc2)CC1` [Example 89, (2,6-Difluoro-4-{3-[4-(4-methyl-piperazin-1-yl)-phenyl]-quinoxalin-5-yl}-phenyl)-morpholin-4-yl-methanone], for which the IC50 on GST-JAK1(866-1154) is 135 nM; on GST-JAK2(808-1132) it was 34 nM; on GST-JAK3(811-1124), 3950 nM; at GST-TYK2(888-1187), 450 nM; in assay [1], 1340 nM.

For the molecule `CN1CCN(c2ccc(-c3cnc4cccc(-c5cc(F)c(CN6CCOCC6)c(F)c5)c4n3)cc2)CC1` [Example 87, 8-(3,5-Difluoro-4-morpholin-4-ylmethyl-phenyl)-2-[4-(4-methyl-piperazin-1-yl)-phenyl]-quinoxaline], the IC50 was determined as 225 nM on GST-JAK1(866-1154); 33.5 nM at GST-JAK2(808-1132); 3500 nM at GST-JAK3(811-1124); 720 nM at GST-TYK2(888-1187); 1320 nM in assay [1].

Consider `Cc1cc(-c2cnc3cccc(-c4ccc(CN5CCS(=O)(=O)CC5)cc4)c3n2)ccc1C(=O)N1CCOCC1` [Example 63, (4-{8-[4-(1,1-Dioxido-thiomorpholin-4-ylmethyl)-phenyl]-quinoxalin-2-yl}-2-methyl-phenyl)-morpholin-4-yl-methanone], for which the IC50 at GST-JAK1(866-1154) is 370 nM; on GST-JAK2(808-1132), 77.5 nM; at GST-JAK3(811-1124), 4300 nM; at GST-TYK2(888-1187), 1450 nM; in assay [1], 986 nM.

Regarding `COCCn1cc(-c2cnc3cccc(-c4cc(F)c(CN5CCOCC5)c(F)c4)c3n2)cn1` [Example 115, 8-(3,5-Difluoro-4-morpholin-4-ylmethyl-phenyl)-2-[1-(2-methoxy-ethyl)-1H-pyrazol-4-yl]-quinoxaline], the IC50 on GST-JAK1(866-1154) was 72.5 nM; on GST-JAK2(808-1132) it was 9.3 nM; on GST-JAK3(811-1124), 1600 nM; at GST-TYK2(888-1187) it was 480 nM; in assay [1], 1440 nM.

As for `Cc1cc(-c2cnc3cccc(-c4cc(F)c(CN5CCOCC5)c(F)c4)c3n2)ccc1C(=O)N1CCN(C)CC1` [Example 42, {4-[8-(3,5-Difluoro-4-morpholin-4-ylmethyl-phenyl)-quinoxalin-2-yl]-2-methyl-phenyl}-(4-methyl-piperazin-1-yl)-methanone], the IC50 on GST-JAK1(866-1154) stood at 715 nM; at GST-JAK2(808-1132), 18 nM; at GST-JAK3(811-1124), 2150 nM; on GST-TYK2(888-1187), 1450 nM; in assay [1] it was 857 nM.

As for `O=C1CN(Cc2c(F)cc(-c3cccc4ncc(-c5cnn(C6CCOCC6)c5)nc34)cc2F)CCN1` [Example 118, 4-(2,6-Difluoro-4-{3-[1-(tetrahydro-pyran-4-yl)-1H-pyrazol-4-yl]-quinoxalin-5-yl}-benzyl)-piperazin-2-one], the IC50 at GST-JAK1(866-1154) was 470 nM; at GST-JAK2(808-1132), 25 nM; on GST-JAK3(811-1124) it was greater than 10000 nM; at GST-TYK2(888-1187) it was 955 nM; in assay [1] it was 360 nM.

With `O=C(c1c(F)cc(-c2cccc3ncc(-c4cnn(C5CCOCC5)c4)nc23)cc1F)N1CCOCC1` [Example 119, (2,6-Difluoro-4-{3-[1-(tetrahydro-pyran-4-yl)-1H-pyrazol-4-yl]-quinoxalin-5-yl}-phenyl)-morpholin-4-yl-methanone], the IC50 was 250 nM at GST-JAK1(866-1154); 9.85 nM at GST-JAK2(808-1132); 6400 nM on GST-JAK3(811-1124); 280 nM on GST-TYK2(888-1187); 340 nM in assay [1].

For `CCN1CCN(c2ccc(-c3cnc4cccc(-c5cc(F)c(CN6CCOCC6)c(F)c5)c4n3)cc2C)CC1` [Example 103, 8-(3,5-Difluoro-4-morpholin-4-ylmethyl-phenyl)-2-[4-(4-ethyl-piperazin-1-yl)-3-methyl-phenyl]-quinoxaline], the IC50 on GST-JAK1(866-1154) worked out at 1150 nM; at GST-JAK2(808-1132), 30.5 nM; at GST-JAK3(811-1124) it was 3600 nM; on GST-TYK2(888-1187), 1200 nM; in assay [1], 824 nM.

In the case of `CCN1CCN(Cc2ccc(-c3cnc4cccc(-c5cc(F)c(CN6CCOCC6)c(F)c5)c4n3)cc2C)CC1` [Example 92, 8-(3,5-Difluoro-4-morpholin-4-ylmethyl-phenyl)-2-[4-(4-ethyl-piperazin-1-ylmethyl)-3-methyl-phenyl]-quinoxaline], the IC50 at GST-JAK1(866-1154) came out at 1380 nM; on GST-JAK2(808-1132), 43 nM; on GST-JAK3(811-1124), 4900 nM; at GST-TYK2(888-1187) it was 3650 nM; in assay [1], 2140 nM.

As for `Cc1cc(-c2cnc3cccc(-c4cc(F)c(CN5CCOCC5)c(F)c4)c3n2)ccc1CN1CCOCC1` [Example 71, 8-(3,5-Difluoro-4-morpholin-4-ylmethyl-phenyl)-2-(3-methyl-4-morpholin-4-ylmethyl-phenyl)-quinoxaline], the IC50 was 160 nM at GST-JAK1(866-1154); 8.1 nM on GST-JAK2(808-1132); 790 nM at GST-JAK3(811-1124); 510 nM at GST-TYK2(888-1187); 2480 nM in assay [1].

In the case of `Fc1cc(-c2cccc3ncc(-c4cnn(C5CCOCC5)c4)nc23)cc(F)c1CN1CCOCC1` [Example 117, 8-(3,5-Difluoro-4-morpholin-4-ylmethyl-phenyl)-2-[1-(tetrahydro-pyran-4-yl)-1H-pyrazol-4-yl]-quinoxaline], the IC50 is 76.5 nM on GST-JAK1(866-1154); less than 3 nM on GST-JAK2(808-1132); 1040 nM at GST-JAK3(811-1124); 125 nM at GST-TYK2(888-1187); 60 nM in assay [1].

Regarding `CN1CCN(c2ccc(-c3cnc4cccc(-c5cc(F)c(CN6CCS(=O)(=O)CC6)c(F)c5)c4n3)cn2)CC1` [Example 108, 8-[4-(1,1-Dioxido-thiomorpholin-4-ylmethyl)-3,5-difluoro-phenyl]-2-[6-(4-methyl-piperazin-1-yl)-pyridin-3-yl]-quinoxaline], the IC50 was determined as 254 nM on GST-JAK1(866-1154); 24.5 nM on GST-JAK2(808-1132); 2400 nM on GST-JAK3(811-1124); 417 nM at GST-TYK2(888-1187); 150 nM in assay [1].
